From US12428406B2 (PMV Pharmaceuticals, Inc., priority 2019, dated 2025)

Biological target: T1, p53 Y220C (Homo sapiens, UniProt P04637, Y220C)
T1 construct: The recombinant protein was a truncation mutant containing only amino acids 94-312 of p53; made in house; host or cells: E. coli
Assay: In vitro DNA binding activity assay (HTRF / TR-FRET): stabilization of p53 Y220C and increase of its DNA binding activity
Type: biochemical
Details: recombinant His-tagged p53 Y220C DNA binding domain (aa 94-312), biotin-labeled consensus DNA, incubated at 27° C. or 29° C. for 60 min
Outline: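 Stabilization of the mutant is inferred from increased binding of His-tagged p53 Y220C to a biotin-labeled consensus DNA, detected by HTRF with europium-streptavidin and APC-anti-His antibody. The concentration giving a 50% rise over compound-free binding is reported as SC150.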

T1 sequence (P04637 94-312, change not shown): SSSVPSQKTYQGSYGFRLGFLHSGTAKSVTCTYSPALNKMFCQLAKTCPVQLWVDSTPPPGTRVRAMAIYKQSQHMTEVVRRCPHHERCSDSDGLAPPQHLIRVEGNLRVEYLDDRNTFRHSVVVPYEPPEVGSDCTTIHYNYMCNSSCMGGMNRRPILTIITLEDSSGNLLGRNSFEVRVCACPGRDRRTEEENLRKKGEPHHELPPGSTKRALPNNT

| SC150 (concentration of the compound required to increase the DNA binding activity by 50%) | Compound |
| --- | --- |
| ++++ (++++ = 0.2 μM ≤ SC150 < 1 μM) | COc1cc(S(C)(=O)=O)ccc1NCC#Cc1cc2c(NC(=O)NC3CCN(CC(O)CO)CC3)cccc2n1CC(F)(F)F (centres unmarked) [Compound 15A, 1-[1-(2,3-dihydroxypropyl)piperidin-4-yl]-3-(2-{3-[(4-methanesulfonyl-2-methoxyphenyl)amino]prop-1-yn-1-yl}-1-(2,2,2-trifluoroethyl)-1H-indol-4-yl)urea] |
| + (+ = 0 μM ≤ SC150 < 0.05 μM) | CCN(CC)[C@H]1CC[C@H](Nc2cccc3c2cc(C#CCNc2ccc(S(=O)(=O)NC)cc2OC)n3CC(F)(F)F)CC1 [Compound 148A, 3-methoxy-N-methyl-4-{[3-(4-{[(1R,4R)-4-(diethylamino)cyclohexyl]amino}-1-(2,2,2-trifluoroethyl)-1H-indol-2-yl)prop-2-yn-1-yl]amino}benzene-1-sulfonamide] |
| + (+ = 0 μM ≤ SC150 < 0.05 μM) | COc1cc(S(N)(=O)=O)ccc1NCC#Cc1cc2c(N[C@H]3CCO[C@@H](C)C3)cccc2n1CC(F)(F)F [Compound 1019A, 3-methoxy-4-{[3-(4-{[(2S,4S)-2-methyloxan-4-yl]amino}-1-(2,2,2-trifluoroethyl)-1H-indol-2-yl)prop-2-yn-1-yl]amino}benzene-1-sulfonamide] |
| + (+ = 0 μM ≤ SC150 < 0.05 μM) | COCC(O)CN1CCC(Nc2cccc3c2cc(C#CCNc2ccc(S(=O)(=O)C(C)C)cc2OC)n3CC(F)(F)F)CC1 (centres unmarked) [Compound 694A, 1-methoxy-3-(4-{[2-(3-{[2-methoxy-4-(propane-2-sulfonyl)phenyl]amino}prop-1-yn-1-yl)-1-(2,2,2-trifluoroethyl)-1H-indol-4-yl]amino}piperidin-1-yl)propan-2-ol] |
| + (+ = 0 μM ≤ SC150 < 0.05 μM) | COc1cc(S(N)(=O)=O)ccc1NCC#Cc1cc2c(NC3CCN(C[C@@H](O)CO)CC3)cccc2n1CC(F)(F)F [Compound 550A, (rac)-4-({3-[4-({1-[2,3-dihydroxypropyl]piperidin-4-yl}amino)-1-(2,2,2-trifluoroethyl)-1H-indol-2-yl]prop-2-yn-1-yl}amino)-3-methoxybenzene-1-sulfonamide] |
| + (+ = 0 μM ≤ SC150 < 0.05 μM) | CNS(=O)(=O)c1ccc(NCC#Cc2cc3c(N[C@H]4CC[C@H](N5CC6(COC6)C5)CC4)cccc3n2CC(F)(F)F)c(OC)c1 [Compound 263A, 4-((3-(4-(((1R,4R)-4-(2-oxa-6-azaspiro[3.3]heptan-6-yl)cyclo-hexyl)amino)-1-(2,2,2-trifluoroethyl)-1H-indol-2-yl)prop-2-yn-1-yl)amino)-3-methoxy-N-methylbenzene-sulfonamide] |
| + (+ = 0 μM ≤ SC150 < 0.05 μM) | COc1cc(S(=O)(=O)N(C)C)ccc1NCC#Cc1cc2c(NC3CCN(CC(O)CO)CC3)cccc2n1CC(F)(F)F (centres unmarked) [Compound 564A, 4-{[3-(4-{[1-(2,3-dihydroxypropyl)piperidin-4-yl]amino}-1-(2,2,2-trifluoroethyl)-1H-indol-2-yl)prop-2-yn-1-yl]amino}-3-methoxy-N,N-dimethylbenzene-1-sulfonamide] |
| + (+ = 0 μM ≤ SC150 < 0.05 μM) | COc1cc(Cl)ccc1NCC#Cc1cc2c(N[C@H]3CC[C@H](N4CC5(COC5)C4)CC3)cccc2n1CC(F)(F)F [Compound 265A, N-((1R,4R)-4-(2-oxa-6-azaspiro[3.3]heptan-6-yl)cyclohexyl)-2-(3-((4-chloro-2-methoxyphenyl)amino)prop-1-yn-1-yl)-1-(2,2,2-trifluoroethyl)-1H-indol-4-amine] |
| + (+ = 0 μM ≤ SC150 < 0.05 μM) | COc1cc(S(=O)(=O)Nc2ccon2)ccc1NCC#Cc1cc2c(N[C@H]3CC[C@@H](N(C)C)CC3)cccc2n1CC(F)(F)F [Compound 50A, 3-methoxy-N-(1,2-oxazol-3-yl)-4-{[3-(4-{[(1S,4S)-4-(dimethylamino)cyclohexyl]amino}-1-(2,2,2-trifluoro-ethyl)-1H-indol-2-yl)prop-2-yn-1-yl]amino}benzene-1-sulfonamide] |
| + (+ = 0 μM ≤ SC150 < 0.05 μM) | CNC(=O)c1ccc(NCC#Cc2cc3c(N[C@H]4CCN(C)C[C@@H]4F)cccc3n2CC(F)(F)F)c(OC)c1 (racemic) [Compound 785A, rac-4-{[3-(4-{[(3R,4R)-3-fluoro-1-methylpiperidin-4-yl]amino}-1-(2,2,2-trifluoroethyl)-1H-indol-2-yl)prop-2-yn-1-yl]amino}-3-methoxy-N-methylbenzamide] |
| + (+ = 0 μM ≤ SC150 < 0.05 μM) | COc1cc(S(C)(=O)=O)ccc1NCC#Cc1cc2c(N[C@H]3CC[C@H](N4CCC(C(F)(F)F)CC4)CC3)cccc2n1CC(F)(F)F [Compound 436A, 2-{3-[(4-methane-sulfonyl-2-methoxy-phenyl)amino]prop-1-yn-1-yl}-N-[(1R,4R)-4-[4-(trifluoromethyl)piperidin-1-yl]cyclohexyl]-1-(2,2,2-trifluoroethyl)-1H-indol-4-amine] |
| ++ (++ = 0.05 μM ≤ SC150 < 0.1 μM) | COc1cc(S(C)(=O)=O)ccc1NCC#Cc1cc2c(N[C@@H]3CCN(C)C[C@@H]3OC)cccc2n1CC(F)(F)F [Compound 532A, 2-{3-[(4-methanesulfonyl-2-methoxyphenyl)amino]prop-1-yn-1-yl}-N-[(3S,4R)-3-methoxy-1-methylpiperidin-4-yl]-1-(2,2,2-trifluoroethyl)-1H-indol-4-amine] |
| + (+ = 0 μM ≤ SC150 < 0.05 μM) | COc1cc(S(C)(=O)=O)ccc1NCC#Cc1cc2c(N[C@H]3CCN(C)C[C@@H]3F)cccc2n1CC(F)(F)F [Compound 771A] |
| + (+ = 0 μM ≤ SC150 < 0.05 μM) | COc1cc(C(=O)O)ccc1NCC#Cc1cc2c(N[C@H]3CCN(CC(=O)N(C)C)C[C@H]3F)cccc2n1CC(F)(F)F [Compound 927A, 4-{[3-(4-{[(3R,4S)-1-[(dimethylcarbamoyl)methyl]-3-fluoropiperidin-4-yl]amino}-1-(2,2,2-trifluoroethyl)-1H-indol-2-yl)prop-2-yn-1-yl]amino}-3-methoxybenzoic acid] |
| + (+ = 0 μM ≤ SC150 < 0.05 μM) | COCC(O)CN1CCC(Nc2cccc3c2cc(C#CCNc2ccc(S(C)(=O)=O)cc2OC)n3CC#N)CC1 (centres unmarked) [Compound 699A, 2-(4-{[1-(2-hydroxy-3-methoxypropyl)piperidin-4-yl]amino}-2-{3-[(4-methanesulfonyl-2-methoxyphenyl)amino]prop-1-yn-1-yl}-1H-indol-1-yl)acetonitrile] |
| + (+ = 0 μM ≤ SC150 < 0.05 μM) | COCCN1CC[C@@H](Nc2cccc3c2cc(C#CCNc2ccc(C(=O)O)cc2OC)n3CC(F)(F)F)[C@@H](F)C1 [Compound 898A] |
| + (+ = 0 μM ≤ SC150 < 0.05 μM) | COCC(O)CN1CCC(Nc2cccc3c2cc(C#CCNc2ccc(C(=O)O)cc2OC)n3CC(F)(F)F)CC1 (centres unmarked) [Compound 705A, 4-{[3-(4-{[1-(2-hydroxy-3-methoxypropyl)piperidin-4-yl]amino}-1-(2,2,2-trifluoroethyl)-1H-indol-2-yl)prop-2-yn-1-yl]amino}-3-methoxybenzoic acid] |
| + (+ = 0 μM ≤ SC150 < 0.05 μM) | COc1cc(S(C)(=O)=O)ccc1NCC#Cc1cc2c(N[C@H]3CCOC[C@H]3OC)cccc2n1CC(F)(F)F [Compound 1024A, 2-(3-((2-methoxy-4-(methylsulfonyl)phenyl)amino)prop-1-yn-1-yl)-N-((3S,4S)-3-methoxytetrahydro-2H-pyran-4-yl)-1-(2,2,2-trifluoroethyl)-1H-indol-4-amine] |
| + (+ = 0 μM ≤ SC150 < 0.05 μM) | COc1cc(C(N)=O)ccc1NCC#Cc1cc2c(N[C@H]3CC[C@H](N4CCOCC4)CC3)cccc2n1CC(F)(F)F [Compound 170A, 3-methoxy-4-{[3-(4-{[(1R,4R)-4-(morpholin-4-yl)cyclohexyl]amino}-1-(2,2,2-trifluoroethyl)-1H-indol-2-yl)prop-2-yn-1-yl]amino}benzamide] |
| ++++ (++++ = 0.2 μM ≤ SC150 < 1 μM) | COc1cc(S(C)(=O)=O)ccc1NCC#Cc1cc2c(NC(=O)NC3CCN(CC(N)=O)CC3)cccc2n1CC(F)(F)F [Compound 16A, 2-(4-{[(2-{3-[(4-methanesulfonyl-2-methoxyphenyl)amino]prop-1-yn-1-yl}-1-(2,2,2-trifluoroethyl)-1H-indol-4-yl)carbamoyl]amino}piperidin-1-yl)acetamide] |
| + (+ = 0 μM ≤ SC150 < 0.05 μM) | COc1cc(S(=O)(=O)Nc2ccon2)ccc1NCC#Cc1cc2c(NC3CCN(CC(O)CO)CC3)cccc2n1CC(F)(F)F (centres unmarked) [Compound 547A, 4-{[3-(4-{[1-(2,3-dihydroxypropyl)piperidin-4-yl]amino}-1-(2,2,2-trifluoroethyl)-1H-indol-2-yl)prop-2-yn-1-yl]amino}-3-methoxy-N-(1,2-oxazol-3-yl)benzene-1-sulfonamide] |
| + (+ = 0 μM ≤ SC150 < 0.05 μM) | COc1cc(C(=O)O)ccc1NCC#Cc1cc2c(N[C@H]3CCN(CC(N)=O)C[C@H]3F)cccc2n1CC(F)(F)F [Compound 925A] |
| + (+ = 0 μM ≤ SC150 < 0.05 μM) | COc1cc(S(C)(=O)=O)ccc1NCC#Cc1cc2c(N[C@H]3CCN(C)C[C@@H]3F)cccc2n1CC(F)(F)F (stereo in doubt) [Compound 774A, N-((3S,4S)-3-fluoro-1-methylpiperidin-4-yl)-2-(3-((2-methoxy-4-(methylsulfonyl)phenyl)amino)prop-1-yn-1-yl)-1-(2,2,2-trifluoroethyl)-1H-indol-4-amine] |
